# Measured values: patent US6410054B1, “Immediate release eplerenone compositions” (G. D. Searle & Co., priority 1998, dated 2002)
# Assays:
# [1] = Single dose study: plasma pharmacokinetics of eplerenone, open lactone ring form, spironolactone; conditions: for AUC(0-t) / Cmax / MRT / Tmax / concentration at 0.5 h / concentration at 1 h / concentration at 2 h / concentration at 3 h / concentration at 4 h / concentration at 6 h / concentration at 8 h / concentration at 12 h / concentration at 16 h / concentration at 24 h / concentration at 28 h / concentration at 32 h / concentration at 48 h / concentration at 72 h / concentration at 96 h / half-life: male, human, plasma, po
# Method: The pharmacokinetics, safety and antialdosterone activity of single 10, 50, 100, 300 and 1000 mg oral doses of eplerenone were evaluated in a single-center, randomized, double-blind, placebo-controlled study.
# The study employed seven parallel dose groups of eight healthy male humans.
# The eplerenone capsules administered corresponded to the capsules (or combinations of the capsules) disclosed in Examples 4, 5, 7 and 8 above. The placebo was a conventional capsule containing lactose. […] The fludrocortisone used in the study consisted of commercially available fludrocortisone tablets (Florinef®, Squibb BV).
# The subjects, who underwent a ten hour food fast prior to administration of the dose, received a single oral dose of one of the study medications together with about 180 mL of water at 0800 hours. […] Each dose of fludrocortisone was administered with 150 mL of water except for the 1.0 mg dose which was administered with 200 mL of water.
# The plasma samples collected from subjects dosed with eplerenone were assayed for concentrations of eplerenone and the open lactone ring form of eplerenone. […] A subset of plasma samples was also assayed for testosterone levels. The urine collected was analyzed to determine concentrations and amounts of eplerenone and the open lactone ring form of eplerenone, the amount of sodium and potassium excreted, and the urinary log10 (sodium/potassium) ratio.
# [2] = ADME study of [14C]eplerenone oral solution: plasma, whole blood, saliva pharmacokinetics; type: in vivo, humans; conditions: for Total Radioactivity AUC0-inf (± SEM) / Total Radioactivity Cmax (± SEM): 100 mg [14C]eplerenone oral solution
# Method: An open-label, single dose study was employed to evaluate the absorption, distribution, metabolism and elimination profile of a single 100 mg dose of an oral solution of eplerenone.
# The study employed eight healthy male humans. Each subject received a single 100 mg oral dose of a solution of [^14C]eplerenone (specific activity 0.75 μCi/mg). Plasma, saliva, breath, urine and fecal samples were collected at predetermined intervals and analyzed for sample radioactivity and the concentration of eplerenone and its open lactone ring form. Safety was determined on the basis of laboratory tests, vital signs, and the occurrence and types of adverse events.
# The subjects, who underwent an overnight food fast prior to administration of the dose, received at 0800 hours a single 100 mg oral dose of an aqueous oral solution of radiolabeled eplerenone reconstituted in 80 mL of an apple juice/hydroxypropyl-β-cyclodextrin mixture. The subjects swallowed about 200 mL of water one, two and three hours post dosing.
# Blood samples were collected at −0.5 (predose), 0.5, 1, 1.5, 2, 2.5, 3, 4, 6, 8, 12, 16, 24, 36, 48, 72 and 96 hours post dose. […] Individual fecal samples were collected beginning immediately after dosing and continuing through 0800 hours on day 8. In addition, one predose fecal sample was provided. Saliva samples were taken at 0.5 hour predose and at 0.5, 1, 2, 4, 6, 12, and 24 hours postdose. Breath samples were taken at 0.5 hour predose and at 1, 2, 3, 4, 6, 8, 12, 24, 36, 48 and 72 hours postdose.
# [3] = male, human, plasma, 100 mg eplerenone oral solution, single dose
smiles,measurement,setting,value
"COC(=O)C1CC2=CC(=O)CCC2(C)C23OC2CC2(C)C(CC[C@@]24CCC(=O)O4)C13 (stereo partly drawn) [eplerenone, methyl hydrogen 9,11α-epoxy-17α-hydroxy-3-oxopregn-4-ene-7α,21-dicarboxylate, γ-lactone]",AUC(0-t),[1]; 300 mg,18500 ng·h/mL
same,Cmax,[1]; 300 mg,2970 ng/mL
same,MRT,[1]; 300 mg,5.5 h
same,Tmax,[1]; 300 mg,1.5 h
same,concentration at 0.5 h,[1]; 300 mg,1620 ng/mL
same,concentration at 1 h,[1]; 300 mg,2680 ng/mL
same,concentration at 2 h,[1]; 300 mg,2780 ng/mL
same,concentration at 3 h,[1]; 300 mg,2220 ng/mL
same,concentration at 4 h,[1]; 300 mg,1950 ng/mL
same,concentration at 6 h,[1]; 300 mg,1270 ng/mL
same,concentration at 8 h,[1]; 300 mg,843 ng/mL
same,concentration at 12 h,[1]; 300 mg,333 ng/mL
same,concentration at 16 h,[1]; 300 mg,142 ng/mL
same,concentration at 24 h,[1]; 300 mg,38.3 ng/mL
same,concentration at 28 h,[1]; 300 mg,21.1 ng/mL
same,concentration at 32 h,[1]; 300 mg,11.3 ng/mL
same,concentration at 48 h,[1]; 300 mg,1.7 ng/mL
same,concentration at 72 h,[1]; 300 mg,0 ng/mL
same,concentration at 96 h,[1]; 300 mg,0 ng/mL
same,half-life,[1]; 300 mg,3.7 h
same,AUC(0-t),[1]; 1000 mg,56400 ng·h/mL
same,Cmax,[1]; 1000 mg,7260 ng/mL
same,MRT,[1]; 1000 mg,7 h
same,Tmax,[1]; 1000 mg,2.5 h
same,concentration at 0.5 h,[1]; 1000 mg,3180 ng/mL
same,concentration at 1 h,[1]; 1000 mg,5260 ng/mL
same,concentration at 2 h,[1]; 1000 mg,5940 ng/mL
same,concentration at 3 h,[1]; 1000 mg,6810 ng/mL
same,concentration at 4 h,[1]; 1000 mg,6220 ng/mL
same,concentration at 6 h,[1]; 1000 mg,4150 ng/mL
same,concentration at 8 h,[1]; 1000 mg,2830 ng/mL
same,concentration at 12 h,[1]; 1000 mg,1340 ng/mL
same,concentration at 16 h,[1]; 1000 mg,647 ng/mL
same,concentration at 24 h,[1]; 1000 mg,208 ng/mL
same,concentration at 28 h,[1]; 1000 mg,107 ng/mL
same,concentration at 32 h,[1]; 1000 mg,61.7 ng/mL
same,concentration at 48 h,[1]; 1000 mg,22.3 ng/mL
same,concentration at 72 h,[1]; 1000 mg,1.4 ng/mL
same,concentration at 96 h,[1]; 1000 mg,0 ng/mL
same,half-life,[1]; 1000 mg,15.1 h
same,relationship between eplerenone dose and plasma concentration,[1]; single 10-1000 mg oral doses,linear relationship
same,concentration of total radioactivity,"[2]; 1.5 hour plasma samples, mean",2390 ng/mL
same,Total Radioactivity AUC0-inf (± SEM),[2]; Plasma,18400 ± 1200 ng equivalents hr/mL
same,Total Radioactivity Cmax (± SEM),[2]; Plasma,2490 ± 110 ng equivalents/mL
same,Total Radioactivity AUC0-inf (± SEM),[2]; Saliva,7960 ± 500 ng equivalents hr/mL
same,Total Radioactivity Cmax (± SEM),[2]; Saliva,2170 ± 280 ng equivalents/mL
same,Total Radioactivity AUC0-inf (± SEM),[2]; Whole Blood,12800 ± 800 ng equivalents hr/mL
same,Total Radioactivity Cmax (± SEM),[2]; Whole Blood,1770 ± 80 ng equivalents/mL
same,concentration at 0.5 h,"[2]; male, human, plasma, 100 mg oral solution of [14C]eplerenone, 0.5 hours after dosing",1340 ng/mL
same,concentration at 1 h,"[2]; male, human, plasma, 100 mg oral solution of [14C]eplerenone, 1.0 hours after dosing",1620 ng/mL
same,concentration at 1.5 h,"[2]; male, human, plasma, 100 mg oral solution of [14C]eplerenone, 1.5 hours after dosing",1590 ng/mL
same,concentration at 2 h,"[2]; male, human, plasma, 100 mg oral solution of [14C]eplerenone, 2.0 hours after dosing",1420 ng/mL
same,concentration at 2.5 h,"[2]; male, human, plasma, 100 mg oral solution of [14C]eplerenone, 2.5 hours after dosing",1260 ng/mL
same,concentration at 3 h,"[2]; male, human, plasma, 100 mg oral solution of [14C]eplerenone, 3.0 hours after dosing",1180 ng/mL
same,concentration at 4 h,"[2]; male, human, plasma, 100 mg oral solution of [14C]eplerenone, 4.0 hours after dosing",1000 ng/mL
same,concentration at 6 h,"[2]; male, human, plasma, 100 mg oral solution of [14C]eplerenone, 6.0 hours after dosing",596 ng/mL
same,concentration at 8 h,"[2]; male, human, plasma, 100 mg oral solution of [14C]eplerenone, 8.0 hours after dosing",391 ng/mL
same,concentration at 12 h,"[2]; male, human, plasma, 100 mg oral solution of [14C]eplerenone, 12.0 hours after dosing",149 ng/mL
same,concentration at 16 h,"[2]; male, human, plasma, 100 mg oral solution of [14C]eplerenone, 16.0 hours after dosing",68 ng/mL
same,concentration at 24 h,"[2]; male, human, plasma, 100 mg oral solution of [14C]eplerenone, 24.0 hours after dosing",17.3 ng/mL
same,concentration at 36 h,"[2]; male, human, plasma, 100 mg oral solution of [14C]eplerenone, 36.0 hours after dosing",0 ng/mL
same,concentration at 48 h,"[2]; male, human, plasma, 100 mg oral solution of [14C]eplerenone, 48.0 hours after dosing",0 ng/mL
same,concentration at 72 h,"[2]; male, human, plasma, 100 mg oral solution of [14C]eplerenone, 72.0 hours after dosing",0 ng/mL
same,concentration at 96 h,"[2]; male, human, plasma, 100 mg oral solution of [14C]eplerenone, 96.0 hours after dosing",0 ng/mL
same,concentration at -0.5 h,"[2]; male, human, plasma, 100 mg oral solution of [14C]eplerenone, −0.5 hours after dosing",0 ng/mL
same,Cmax,[2]; [3],1720 ng/mL
same,half-life,[2]; [3],3.8 h
same,AUC(0-t),"[2]; male, human, plasma, 100 mg eplerenone oral solution, single dose, read-out: AUC(0-96)",9540 ng·h/mL
same,MRT,"[2]; male, human, plasma, 100 mg eplerenone oral solution, single dose, read-out: Mean Residence Time",4.8 h
same,Tmax,"[2]; male, human, plasma, 100 mg eplerenone oral solution, single dose, read-out: Tmax",1.3 h
same,Oral Clearance,"[2]; plasma, 100 mg eplerenone oral solution, single dose",11.4 L/h
